Results from ChEMBL document CHEMBL1158258, “Bioactive Isoquinoline Quinone from an Undescribed Philippine Marine Sponge of the Genus Xestospongia” (J Nat Prod, 1996).
In brackets after ≈: the same amount, converted by molar mass. Activity calls are given as the source filed them. The calls are words filed in the database; no cut-off is given here.

Legend:
Bacillus subtilis = assay: Antibacterial activity against Bacillus subtilis 168 at 100 ug after 24 hrs by agar plate diffusion assay; assay type: functional; details: for zone of inhibition at 100 µg/disc: subsp. subtilis str. 168, 24 h, read-out: IZ
Staphylococcus aureus = assay: Antibacterial activity against Staphylococcus aureus ATCC 25923 at 100 ug after 24 hrs by agar plate diffusion assay; assay type: functional; details: ATCC 25923, 24 h, read-out: IZ
Spodoptera littoralis [1] = assay: Insecticidal activity against Spodoptera littoralis neonate larvae assessed as survival at 270 ppm in artificial diet after 6 days relative to control; assay type: functional
Escherichia coli = assay: Antibacterial activity against Escherichia coli ATCC 25922 at 100 ug after 24 hrs by agar plate diffusion assay; assay type: functional, organism-based
Spodoptera littoralis [2] = assay: Insecticidal activity against Spodoptera littoralis neonate larvae assessed as survival treated with artificial diet after 6 days; assay type: functional, organism-based

Compound	inhibition zone (IZ) (Bacillus subtilis; subsp. subtilis str. 168) [mm]	zone of inhibition at 100 µg/disc (Staphylococcus aureus) [mm]	Activity (Spodoptera littoralis [1]) [%]	Activity (Escherichia coli)	zone of inhibition at 100 µg/disc (Bacillus subtilis) [mm]	EC50 (Spodoptera littoralis [2]) [ppm]	LC50 (Spodoptera littoralis [2]; Spodoptera littoralis, 144 h) [µg/mL]
GENTAMICIN	16						
C/C=C(/C)C(=O)OCC1C2=C(C=CN1/C=C/C(C)=O)C(=O)C(C)=C(OC)C2=O (stereo not given)		15	50	inactive	15		
C/C=C(/C)C(=O)OCc1nccc2c1C(=O)C(OC)=C(C)C2=O [RENIERONE]		14	60	inactive	15		
COC1=C(C)C(=O)c2ccnc(C)c2C1=O		9	93	inactive	12	35	521 (≈ 2400 µM)
